The subject of series [1] is COL1A2 promoter. Kind of series: Decoy oligonucleotides on COL1A2/CAT promoter activity in dermal fibroblasts (FIG. 5A). The class given is cell-based, human. The settings on record: −3500COL1A2/CAT, 24 h; for decrease of COL1A2 promoter activity: various amounts added to culture medium. The protocol:
(§1) FIG. 5. Decoy Sp1 oligonucleotides inhibit COL1A2 promoter activity in vitro and in vivo. A, Confluent human dermal fibroblast cultures are transfected with 5 μg of −500COL1A2/CAT reporter gene construct. After glycerol shock, increasing amounts (2, 5, 10 μg) of Sp1 (open bars) or mSp1 (hatched bars) oligonucleotides are added to the culture medium. Forty hours later, CAT activity is determined and compared to that of cultures without oligonucleotides (closed bar). Relative promoter activity (mean±SD) of three separate experiments performed in duplicate is presented. B, Four transgenic mice carrying 17 kb of mouse COL1A2 promoter linked to the luciferase gene in their genome are injected subcutaneously at distant sites (approx. 2 cm apart) with 15 μg of either Sp1 (open bar) or mSp1 (hatched bar) oligonucleotides in 25 μl of H2O. After a 30-hr incubation, animals are sacrified and luciferase activity is determined in the skin surrounding the injection sites using identical amounts of protein extracts (40 μg). A non-injected skin area is used as control (solid bar).
Transient cell transfection and CAT assays. Transient cell transfections are performed with the calcium phosphate/DNA co-precipitation procedure. CAT activity is measured using [^14C]chloramphenicol as substrate (Gorman et al, Mol Cell Biol 2: 1044-1051, 1982) followed by thin layer chromatography and quantitation with a phosphorimager.
Decoy oligonucleotides. In some in vitro experiments decoy double-stranded oligonucleotides are used in an attempt to interfere with Sp1 binding to its cognate cis-elements within the COL1A2 promoter. […] 24 h later, CAT activity, representing promoter activity, is determined.
Decoy Sp1 oligonucleotides inhibit COL1A2 promoter activity in vitro and in vivo. Since Sp1 is fundamental for high expression of several ECM genes, short oligonucleotides bearing a consensus Sp1 binding sequence are analyzed for their efficacy as decoys to decrease collagen promoter activity. […] Promoter activity is determined 24 h later. […]

In series [2] the test system is human dermal fibroblasts. The class given is cell-based.
Series [3] has as its target Sp1 (Homo sapiens, UniProt P08047). Kind of series: EMSA binding of Sp1 to oligonucleotide. The settings on record: EMSA experiments. The protocol: Electrophoresis mobility shift assays (EMSA). A 22-mer consensus Sp1 oligonucleotide 5′-[…]-3′ was used as a probe to determine Sp1/DNA interactions. For supershift experiments, nuclear extracts (5 μg) are incubated for 2 h on ice with an anti-Sp1 antibody (Santa Cruz Biotechnologies, Santa Cruz, Calif.) prior to the binding reactions. Binding mixtures are separated electrophoretically on native 4% acrylamide gels, as described previously (Vindevoghel et al, 1997).
Decoy Sp1 oligonucleotides inhibit COL1A2 promoter activity in vitro and in vivo. Since Sp1 is fundamental for high expression of several ECM genes, short oligonucleotides bearing a consensus Sp1 binding sequence are analyzed for their efficacy as decoys to decrease collagen promoter activity. For this purpose. two approaches are used. First, human dermal fibroblasts are transfected with the −3500COL1A2/CAT construct, and various amounts of either wild-type or mutant Sp1 double-stranded oligonucleotides (SEQ. ID. NO:2 and SEQ. ID. NO: 3. respectively) are added to the culture medium. Promoter activity is determined 24 h later. […] Maximal inhibition (55%) is observed with addition of […] of Sp1 oligonucleotide.
For orientation: Mobility shift assays separate free from complexed probe on a gel.

The subject of series [4] is mouse COL1A2 promoter. Kind of series: Decoy oligonucleotides in COL1A2/luciferase transgenic mice (FIG. 5B). The class given is in vivo. The settings on record: 15 μg intradermally; COL1A2/lux transgenic mice; 24 hours; vs control skin. The protocol: as §1, with “B, Four transgenic mice carrying 17 kb of mouse COL1A2 promoter linked to the luciferase gene in their genome are injected subcutaneously at distant sites (approx. 2 cm apart) with 15 μg of either Sp1 (open bar) or mSp1 (hatched bar) oligonucleotides in 25 μl of H2O.” left out, “A non-injected skin area is used as control (solid bar).” left out
Treatment of transgenic mice. […] Luciferase activity using identical amounts of extracted proteins is determined with a commercial assay kit (Promega).
Next, decoy Sp1 experiments are performed in a transgenic mouse model in which 17 kb of the mouse COL1A2 promoter drives the expression of the luciferase gene. […] Luciferase activity is determined 24 hours later in the skin region surrounding the injections. […]

Series [5] concerns COL7A1 promoter. Kind of series: Decoy oligonucleotides on COL7A1 promoter activity. It is filed as cell-based, human. The settings on record: compared with COL1A2 promoter.

Sp1, sequence (P08047 whole entry): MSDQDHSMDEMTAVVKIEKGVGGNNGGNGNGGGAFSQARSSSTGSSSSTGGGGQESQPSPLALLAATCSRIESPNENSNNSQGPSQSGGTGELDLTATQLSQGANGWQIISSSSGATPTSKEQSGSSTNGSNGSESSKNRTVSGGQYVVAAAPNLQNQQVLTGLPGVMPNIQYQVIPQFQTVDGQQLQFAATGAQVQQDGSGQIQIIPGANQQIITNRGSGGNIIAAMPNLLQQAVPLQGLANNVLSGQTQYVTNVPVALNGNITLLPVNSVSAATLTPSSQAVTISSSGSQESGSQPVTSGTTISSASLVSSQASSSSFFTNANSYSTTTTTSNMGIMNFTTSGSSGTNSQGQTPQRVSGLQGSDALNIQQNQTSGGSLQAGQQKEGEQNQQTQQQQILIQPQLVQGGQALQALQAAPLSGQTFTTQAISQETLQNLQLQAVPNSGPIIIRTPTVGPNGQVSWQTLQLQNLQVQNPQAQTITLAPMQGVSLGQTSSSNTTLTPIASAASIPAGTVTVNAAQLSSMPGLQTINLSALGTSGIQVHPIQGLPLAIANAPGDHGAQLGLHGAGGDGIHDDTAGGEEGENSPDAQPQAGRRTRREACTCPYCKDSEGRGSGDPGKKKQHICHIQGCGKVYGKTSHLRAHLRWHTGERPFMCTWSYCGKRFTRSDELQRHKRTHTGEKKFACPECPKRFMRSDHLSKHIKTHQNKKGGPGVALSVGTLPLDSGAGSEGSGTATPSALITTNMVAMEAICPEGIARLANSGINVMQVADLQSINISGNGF

Regarding “mSp1: mutant double-stranded oligonucleotide used as a control, 5′-ATTCGATCGTAGCGATGCGAGC-3′ (double-stranded, further chemistry not given here) [reference compound]”, the “decrease of COL1A2 promoter activity” value in series [1] is listed as “not”. Further, the cellular toxicity entry in series [2] is given as “No cellular toxicity”. Moreover, in series [3], the “binding of Sp1 to the oligonucleotide's Sp1 binding site” value was “incapable of binding Sp1”. Besides, the “reduction of COL1A2 promoter activity (luciferase activity in skin)” value in series [4] is on record as “no effect”.
Consider “Sp1 oligonucleotide: 22-mer consensus Sp1 double-stranded decoy oligonucleotide, 5′-ATTCGATCGGGGCGGGGCGAGC-3′ (double-stranded, further chemistry not given here)”, for which the “Maximal inhibition of COL1A2 promoter activity” value in series [1] (15 μg/plate) was determined as 55%. For the same substance, the “decrease of COL1A2 promoter activity” value in series [1] is “efficiently decreases COL1A2 promoter activity in a dose-dependent manner”. In addition, in series [5], the “inhibition of COL7A1 promoter” value was “equally inhibited”. Also, the cellular toxicity result in series [2] was “No cellular toxicity”. Moreover, the “reduction of COL1A2 promoter activity (luciferase activity in skin)” value in series [4] is reported as “about 70%”.

The record behind these values is patent publication US20020137715A1, “Blocking Sp1 transcription factor broadly inhibits extracellular matrix gene expression in vitro and in vivo: implications for the treatment of tissue fibrosis” (priority 2001, published 2002).
